The experiment addresses T1, Fc region of trastuzumab (Homo sapiens, UniProt P01857).
T1 construct: made in house; host or cells: recombinant CHO cell lines
Description: Competitive FP binding assay against Fc-III-FAM. Conditions: for binding to the Fc region of trastuzumab (in words): competitive FP against Fc-III-FAM. As for the experimental part:
The competitive FP measurements were performed on SpectraMax Paradigm Multi-Mode Detection Platform (Molecular Devices) in flat-bottom 384-well Corning microplates (Merck KGaA), using excitation and emission wavelengths of 485 nm and 535 nm, respectively. The acquisition time was 700 milliseconds and the read height was 1 mm. All reagents used in the assay were diluted in PBS containing 0.05% Tween 20.
The mixture was incubated at 27° C. for 15 min and the fluorescence signal was red on a Spectramax Paradigm. All sample preparations were done in PBS pH 7.4 or 7.0 containing 0.05% Tween. Each experiment was performed in triplicate.

Where a SMILES comes first, the peptide text is derived from it. Bridges are numbered along the chain shown (N, C = ends). Where no end group is shown, it is not given here. [ ]: non-standard residue; d: D form. PEG20 = NCCOCCOCCOCCOCCOCCOCCOCCOCCOCCOCCOCCOCCOCCOCCOCCOCCOCCOCCOCCOCCC(=O)O

As to `CC(C)C[C@@H]1NC(=O)[C@H](Cc2c[nH]cn2)NC(=O)[C@H](Cc2c[nH]c3ccccc23)NC(=O)[C@H](C)NC(=O)[C@@H](NC(=O)[C@H](CC(=O)O)NC(=O)[C@@H]2CCCN2C(=O)[C@@H]2CCCN2C(=O)[C@@H]2CCCN2C(=O)[C@@H]2CCCN2C(=O)[C@@H]2CCCN2C(=O)[C@@H]2CCCN2C(=O)CNC(=O)CNC(=O)[C@@H](N)CO)CSSC[C@@H](C(=O)N[C@H](C(N)=O)[C@@H](C)O)NC(=O)[C@H](Cc2c[nH]c3ccccc23)NC(=O)[C@H](C(C)C)NC(=O)[C@H](CC(C)C)NC(=O)[C@H](CCC(=O)O)NC(=O)CNC1=O` [Compound 2] (H-SGGPPPPPPDCAWHLGELVWCT-NH2; disulfide 11-21 (inferred)), the IC50 worked out at 0.061 ± 0.033 µM and the “binding to the Fc region of trastuzumab (in words)” value (“binding to the Fc region” for short) is “high affinity”.
For `CC(C)C[C@@H]1NC(=O)[C@H](Cc2c[nH]cn2)NC(=O)[C@H](Cc2c[nH]c3ccccc23)NC(=O)[C@H](C)NC(=O)[C@@H](NC(=O)[C@@H](N)CC(=O)O)CSSC[C@@H](C(=O)N[C@H](C(N)=O)[C@@H](C)O)NC(=O)[C@H](C)NC(=O)[C@H](Cc2c[nH]c3ccccc23)NC(=O)[C@H](CC(C)C)NC(=O)[C@H](CCC(=O)O)NC(=O)CNC1=O` [Compound 13] (H-DCAWHLGELWACT-NH2; disulfide 2-12 (inferred)), the IC50 worked out at 36.5 ± 15.6 µM.
As for `CC(C)C[C@H](NC(=O)[C@H](Cc1c[nH]cn1)NC(=O)[C@H](Cc1c[nH]c2ccccc12)NC(=O)[C@H](C)NC(=O)[C@H](C)NC(=O)[C@H](CC(=O)O)NC(=O)CCOCCOCCOCCOCCOCCOCCOCCOCCOCCOCCOCCOCCOCCOCCOCCOCCOCCOCCOCCOCCN)C(=O)NCC(=O)N[C@@H](CCC(=O)O)C(=O)N[C@@H](CC(C)C)C(=O)N[C@H](C(=O)N[C@@H](Cc1c[nH]c2ccccc12)C(=O)N[C@@H](C)C(=O)N[C@H](C(N)=O)[C@@H](C)O)C(C)C` [Compound 16] (H-[PEG20]DAAWHLGELVWAT-NH2), the IC50 came to 10.7 ± 11.9 µM and the “binding to the Fc region” value is on record as “impaired peptide binding”.
Consider “NH2—(PEG)20—CH2CH2—CO—DCAWHLGELWACT—NH2 ([PEG20]DCAWHLGELWACT-NH2; disulfide 3-13 (inferred)) [Compound 15]”, for which the “binding to the Fc region” value is “impaired peptide binding”.

One may read the IC50 as the concentration at which inhibition is half-maximal. The low end stands for greater potency in that assay, the high end for weaker potency in that assay.

For the origin of these results see patent publication US20230046947A1, “REACTIVE CONJUGATES” (Debiopharm Research & Manufacturing S.A., priority 2019, published 2023).
